In paper PMC10002220, “In Vivo Reversal of P-Glycoprotein-Mediated Drug Resistance in a Breast Cancer Xenograft and in Leukemia Models Using a Novel, Potent, and Nontoxic Epicatechin EC31” (International Journal of Molecular Sciences, 2023):

How the values were obtained:
P388ADR leukemia = experiment: In vivo efficacy in reversing DOX resistance in murine leukemia P388ADR model; parameters: species or system B6D2F1 mice; conditions: DOX 3 mg/kg i.p. alone
Description: (§1) Irradiated BDF1 mice were i.p. inoculated with P388ADR cells, which caused mouse leukemia. Irradiated NOD/SCID mice were i.v. inoculated with K562/P-gp cells, which caused human leukemia. The mice were randomized and treated with (1) control treatment (no treatment), (2) DOX alone, and (3) EC31 + DOX. Treatments were given as indicated by the arrows. The number of mice deaths in each treatment group was recorded every day. (A) The percent survival of mice infected with P388ADR. (B) The percent survival of mice infected with K562/P-gp. The mice median survival days and the increased lifespan (ILS) were analyzed with Log-rank (Mantel–COX) test in Prism 5.0. Student’s paired t test was conducted as indicated. ** represents p < 0.01, and *** represents p < 0.001. N.S. = not significant.
About 1 × 10^6 cells of P388ADR were i.p. inoculated in male B6D2F1 mice aged 5–7 weeks old. There were 3 groups: (1) control group with no treatment, (2) DOX (3 mg/kg i.p.) alone, and (3) cotreatment with EC31 (60 mg/kg i.p.) being injected 1 h prior to DOX (3 mg/kg i.p.) administration. In group 2, DOX was i.p. injected on days 2, 6, 10, 14, and 18 only. In group 3, EC31 was i.p. injected on days 1, 2, 5, 6, 9, 10, 13, 14, 17, and 18, and DOX was i.p. injected on days 2, 6, 10, 14, and 18. Before each treatment, 1.5 mg/mL of DOX was freshly prepared using PBS. Mice survival and body weight were monitored during the study period.

P388ADR cells = experiment: Drug resistance level: IC50 of anticancer drugs in P388ADR; assay type: cell-based, mouse
Description: (§2) In the Western blot membrane, the total P-gp and β-actin expression in each lane was quantified with ImageJ software. The relative P-gp expression was an intensity ratio of P-gp band relative to the β-actin band. The relative P-gp expression of the resistant cell line relative to its respective wild type was presented as a bar chart. The plasma membrane P-gp levels of LCC6MDR and K562/P-gp relative to their wild types were determined through flow cytometry using antihuman P-gp-PE antibodies. (B) LCC6MDR and LCC6. (C) K562/P-gp and K562. (D) the drug resistance levels of three P-gp-overexpressing cell lines and their wild types were studied. The 3 pairs of cell lines were incubated with anticancer drugs paclitaxel (PTX), doxorubicin (DOX), and vincristine (VCR) for 3 days, and the % of cell survival was then determined. Their IC50 (nM) values were calculated using Prism 5.0. RF (relative fold) was a ratio of IC50 of anticancer drugs in a P-gp-overexpressing cell line relative to its respective wild type. N = 3 independent experiments. […] All cell lines were counterstained with DAPI. (E) LCC6 and LCC6MDR, (F) P388 and P338ADR, and (G) K562 and K562/P-gp. Bar = 8 µm. / = not determined.

K562 cells = experiment: Drug resistance level: IC50 of anticancer drugs in K562; assay type: cell-based; conditions: Homo sapiens, K562, 72 h; 3 days incubation
Description: as §2

K562/P-gp cells = experiment: Drug resistance level: IC50 of anticancer drugs in K562/P-gp; assay type: cell-based, human
Description: as §2

P388 cells = experiment: Drug resistance level: IC50 of anticancer drugs in P388; assay type: cell-based; conditions: Mus musculus, P388, 72 h; 3 days incubation
Description: as §2

LCC6MDR cells = experiment: Drug resistance level: IC50 of anticancer drugs in LCC6MDR; assay type: cell-based, human
Description: as §2

K562/P-gp leukemia = experiment: In vivo efficacy in reversing DOX resistance in human leukemia K562/P-gp model; parameters: species or system NOD/SCID mice
Description: as §1
The mice were randomly distributed into 3 groups: (1) control group (no treatment), (2) DOX (0.9 mg/kg i.v.) alone, and (3) cotreatment with EC31 (30 mg/kg i.p.) being injected 1 h prior to DOX (0.9 mg/kg i.v.) administration. EC31 and DOX were injected on days 7, 11, 19, 23, and 27. Before each treatment, 0.2 mg/mL of DOX was freshly prepared using PBS. Mice survival and body weight were monitored during the study period.

LCC6 cells = experiment: Drug resistance level: IC50 of anticancer drugs in LCC6; assay type: cell-based; conditions: Homo sapiens, LCC-6, 72 h; 3 days incubation
Description: as §2

COc1cccc2c1C(=O)c1c(O)c3c(c(O)c1C2=O)C[C@@](O)(C(=O)CO)C[C@@H]3O[C@H]1C[C@H](N)[C@H](O)[C@H](C)O1 [DOX, doxorubicin]
median survival (P388ADR leukemia): 16.5 days | RF (relative fold) (P388ADR cells; IC50 in P388ADR relative to P388): 35.8 | IC50 (P388ADR cells; Mus musculus, P388/ADR, 72 h, 3 days incubation): 1790 ± 139 nM | IC50 (K562 cells): 312 ± 41.6 nM | IC50 (K562/P-gp cells; Homo sapiens, K562, 72 h, 3 days incubation): 1930 ± 126 nM | RF (relative fold) (K562/P-gp cells; IC50 in K562/P-gp relative to K562): 6.2 | IC50 (P388 cells): 50 ± 1.8 nM | IC50 (LCC6MDR cells; Homo sapiens, LCC6MDR, 72 h, 3 days incubation): 10300 nM | RF (relative fold) (LCC6MDR cells; IC50 in LCC6MDR relative to LCC6): 12.9 | median survival time (K562/P-gp leukemia; DOX 0.9 mg/kg i.v. alone): 32.0 days | ILS% (increase in lifespan) (K562/P-gp leukemia; DOX alone compared to untreated): 10.3% | IC50 (LCC6 cells): 800 ± 100 nM
